The values below come from US20250214973A1, “1,4,5-TRISUBSTITUTED-1,2,3-TRIAZOLES AND USES THEREOF” (UNIVERSITY OF PUERTO RICO, priority 2022, published 2025).

As a reminder, the GI50 is the concentration giving 50% growth inhibition.

For assay [1], the system named is Panc-1. The assay is described as follows: Wound healing assay. The settings on record: Homo sapiens, 24 hr, read-out: inhibition of Panc-1 cell migration. In kind it is cell-based. Here is the method:
(§1) Mircrographs were digitally acquired at 0, 12, and 24 hours and the area of the wound quantified relative to the distance at time 0. n=3.
Panc-1 cells plated at equal density were subjected to a scratch in the center and treated with 4c at 0, 150 nM, 250 nM, or 500 nM. Mircrographs were digitally acquired at 0, 12, and 24 hours and the area of the wound quantified relative to the distance at time 0. n=3.

For assay [2], the system named is RAW264.7 macrophage cell line. The assay is described as follows: Wound healing assay. The settings on record: Mus musculus, read-out: inhibition of wound closure, RAW264.7. Type of assay: cell-based, murine. Here is the method:
as §1
Murine macrophage cell line, RAW264.7, plated at equal density were subjected to a scratch in the center and treated with 4c at 0, 150 nM, 250 nM, or 500 nM. Mircrographs were digitally acquired at 0, 12, and 24 hours and the area of the wound quantified relative to the distance at time 0. n=3.

For assay [3], the system named is MDA-MB-435. The assay is described as follows: Cell viability assay (MTT). In kind it is cell-based, human. Here is the method: (§2) Cells plated at equal density were treated at 500 nM of compounds. After 72 hours, cell viability was measured by a MTT assay. n=3; * p<0.05, ** p<0.01, *** p<0.001.
(§3) Cells plated at equal density were treated at 250 nM of 4c at 250 nM.
(§4) Data from 3 biologic replicates each with 2 technical replicates. Four parameter dose-response curves generated using GraphPad Prism are shown.
[…]. GI50 was calculated using Graph pad Prism.
(§5) […] Using CellTiter 96 Non-Radioactive Cell Proliferation Assay (Promega, Corp.) according to manufactures' instructions, formazan was used as an indicator of viable cells at an absorbance 570 nm in a Tecan Microplate Reader M100. Data was calculated as fold change from vehicle and fitted using the 4′parameter logic nonlinear regression model in GraphPad Prism software. (n=3 biologic replicates: with 3 technical replicates each).
A range of compounds were tested by MTT assays for cell viability in MDA-MB-231 triple negative breast cancer (TNBC) cells and MDA-MB-435 HER2++ cancer cells. […].

The subject of assay [4] is Panc-1. The assay is described as follows: Cell viability assay (MTT). The following applies: Homo sapiens, 120 hours, 0-1000 nM. In kind it is cell-based. Here is the method: as §5
Assay [5] deals with MDA-MB-231. The assay is described as follows: Cell viability assay (MTT). Type of assay: cell-based. The settings on record: Homo sapiens. The protocol:
Cells plated at equal density were treated at 500 nM of compounds. […]
as §3, §4
Cell viability relative to vehicle (100%) is shown.
as §5
A range of compounds were tested by MTT assays for cell viability in MDA-MB-231 triple negative breast cancer (TNBC) cells and MDA-MB-435 HER2++ cancer cells.

For assay [6], the system named is MDA-MB-468. The assay is described as follows: Apoptosis assay, caspase 3/7 activity. The settings on record: 500 nM, 48 hours. Type of assay: cell-based. Here is the method:
(§6) Cells plated at equal density were treated at 500 nM of compounds. After 48 hours, caspase 3/7 activity was measured by luminescence. n=3; * p<0.05, ** p<0.01.
(§7) Equal number of cells were seeded incubated with vehicle or compounds according to this disclosure at 250 or 500 nM for 48 hrs. Apoptosis was measured using a Caspase-Glo3/7 Luminescence Assay Kit as per manufacturer's instructions (Promega, Corp.). Briefly, Caspase-3/7 Glo reagent was added and incubated at room temperature for 60 min and Caspase-3/7 activities were determined by detecting luminescence using Tecan Microplate Reader M100. (n=3 biologic replicates: with 3 technical replicates each).

The subject of assay [7] is MDA-MB-435. The assay is described as follows: Apoptosis assay, caspase 3/7 activity. Type of assay: cell-based, human. The following applies: 500 nM, 48 hours. The protocol:
as §6, §7

The test system of assay [8] is MDA-MB-231. The assay is described as follows: Apoptosis assay, caspase 3/7 activity. Type of assay: cell-based, human. The following applies: 500 nM, 48 hours. Here is the method: as §6, §7
Assay [9] deals with MDA-MB-435. The assay is described as follows: Initial screening, SRB assay GI50. In kind it is cell-based. The settings on record: Homo sapiens, 48 hrs, read-out: MDA-MB435 GI50. Here is the method: (§8) For initial screening, the GIso of compounds 4a-4h in the cell lines MDA-MB-231, MDA-MB-435 and MCF-7 was determined via the SRB-assay for 48 hrs as follows:
(§9) A stock solution of compounds was prepared at 50 mM in 100% DMSO. For cells preparation, a flask of 75 cm^2 or 25 cm^2 were used for 2.6×10^5 cells/mL or 1.44×10^5 cells/mL, respectively, with an 80-90% of confluence. Cells were washed with PBS and trypsinized. The concentration of cells was determined using a 1:2 dilutions with Trypan Blue and a hemocytometer. After cell count, the concentration was adjusted to have a 7.0-10.0×10^4 cells/mL. Approximately 100 μL of cells suspension, compounds, control positive and control negative were added in triplicates to a 96 well plate. Positive control used was doxorubicin, and the negative control was DMSO 0.1%. All compounds (4a-h) at 50, 25, 12.5, 6.3, and 1.6 μM were incubated with cells at 37° C. for 48 hrs. For fixation, cold TCA 50% was used and incubated at 4° C. for 1 h. Wells were washed and dried prior to tincture with 100 μL of SRB 0.4%. To remove excess of SRB, acetic acid was used. For analysis, TRIS-BASE Solution (pH=10.5) was used and shaken prior to reading using an ELISA reader at 540 nm and the software SoftMax Pro 4.8. For each compound, 50% growth inhibition (GI50) was calculated from Sigmoidal dose-response curves (variable-slope) that were generated with data obtained from experiments carried out in triplicates (GI50 values were generated with GraphPad Prism V. 6.02, GraphPad Software, Inc.).
For orientation: The SRB assay estimates cell density from bound dye.

The test system of assay [10] is MDA-MB-231. The assay is described as follows: Initial screening, SRB assay GI50. Type of assay: cell-based. The settings on record: Homo sapiens, 48 hrs. The protocol: as §8, §9
The test system of assay [11] is MCF-7. The assay is described as follows: Initial screening, SRB assay GI50. In kind it is cell-based. The following applies: Homo sapiens, MCF7, 48 hrs. The protocol: as §8, §9
Assay [12] concerns MDA-MB-468. The assay is described as follows: Cell viability assay (MTT). In kind it is cell-based. The settings on record: 500 nM, 72 hours. Here is the method: as §2
Equal number of cells were seeded in a 24 well plate and incubated with vehicle or compounds according to this disclosure at concentrations between 1 and 0.001 nM for 72 and 120 hrs. Using CellTiter 96 Non-Radioactive Cell Proliferation Assay (Promega, Corp.) according to manufactures' instructions, formazan was used as an indicator of viable cells at an absorbance 570 nm in a Tecan Microplate Reader M100. Data was calculated as fold change from vehicle and fitted using the 4′parameter logic nonlinear regression model in GraphPad Prism software. (n=3 biologic replicates: with 3 technical replicates each).

For assay [13], the system named is MDA-MB-231. The assay is described as follows: Initial screening, inhibition of migration (wound gap). In kind it is cell-based. The following applies: Homo sapiens. Here is the method:
In addition, the inhibition of migration of MDA-MB-231 was determined via the following procedure:
Prior to assays, cells were grown until 80-90% confluence was observed. We used a 75 cm^2 flask for 2.6×10^5 cells/mL in 10 mL and for a 25 cm^2 flask 1.44×10^5 cells/mL in 5 mL. The cells were washed with PBS to remove all traces of FBS. We added 2 mL for a 25 cm^2 flasks or 4 mL for a 75 cm^2 flasks trypsin, and incubated 5-10 min at 37° C. At the end of the incubation time, cells were re-suspended and counted with hemocytometer using 1:2 dilutions with Trypan blue. Subsequently, cell viability was calculated. In a 12 well tissue culture plate, we used the plastic pattern to draw a fine space with a fine marker on the bottom of the plate. Cells were seeded at 1.5-2.2×10^5 cells/mL in 1 mL and incubated for 24 h. Cells were then rinsed with PBS and incubated in starving media (0.5% FBS) overnight. All controls and drugs were tested in triplicate. The negative control for each drug was prepared according to the drug's DMSO concentration. […] The wound was made using a sterile pipette tip of 200 μL. Cells were then rinsed very gently with media without FBS and media with negative controls was added. After a 24 h incubation, the gap distance was evaluated using the software Lumera Infinity Analyze 6.4.0. Pictures were taken at 0, 8, 12 and 24 h using a 10× objective in an Inverted Laboratory Microscope Leica DM IL LED, and an Infinity1-3 3.1 Megapixel USB 2.0 camera CMOS. The percentage of migration was calculated using the following formula: […]

Assay [14] deals with T1, Vav2 binding to Rac1 (Homo sapiens, UniProt P63000, G15A).
T1 construct: purchased Cell Biolabs, San Diego; CA; host or cells: Vav2 from MDA-MB-231 cell lysate
The assay is described as follows: Rac1 GEF assay, Rac1(G15A) pulldown. The settings on record: 8 μM, MDA-MB-231 lysates. Here is the method:
GST-Rac1 (G15A) beads were pre-incubated with vehicle (0.1% DMSO), or 8 μM EHop-016, or 250 nM Compound 4c for 1 hour followed by incubation with MDA-MB-231 cell lysates (equal total protein). Representative Western blot for Rac1(G15A) or pulldowns immunostained for Vav2 is shown (n=3).
MDA-MB-231 cells in culture medium were lysed in 1% Triton X-100, 20 mM HEPES, pH 7.4, 150 mM NaCl, 5 mm MgCl2, and protease inhibitors and processed. Equal amounts of protein from cleared lysates were incubated for 1 h at 4° C. with glutathione-agarose beads conjugated to GST-Rac1(G15A) nucleotide-free mutant (Cell Biolabs, San Diego. CA) that were preincubated (for 1 h) with vehicle or 8 μm EHop-016 or 0.25 μM Compound 4c. The beads were washed, and the lysates and pull-downs were immunoblotted for Tiam-1, Trio, Ect2, p-REX, or Vav2.

As to `CCn1c2ccccc2c2cc(-n3nncc3-c3ccccc3)ccc21` (racemic) [MBQ-167, reference compound], the inhibition at […] in assay [1] (250 nM) worked out at 40%; in assay [2] (250 nM), 30%; in assay [5] (MDA-MB-231, 250 nM for 48 hours (footnote a; title says 500 nM), read-out: % growth inhibition MDA-MB-231) it was 36%. In addition, the inhibition at 0.5 µM in assay [1] (500 nM) amounted to 50%. Besides, the inhibition at 0.15 µM in assay [2] (150 nM) came out at 30%. In addition, the GI50 came to 145 nM in [3] (Homo sapiens, MDA-MB-435, 72 h, read-out: GI50 MDA-MB-435) and 155 nM in assay [4]. Moreover, the cytotoxicity at […] in [5] (250 nM, 48h, text prints MDA-MB-435 TNBC, read-out: inhibition of cell viability) was roughly 40%.

With `CCn1c2ccccc2c2cc(-n3nnc(C(O)c4cccnc4)c3-c3ccccc3)ccc21` (centres unmarked) [Compound 4b, (1-(9-ethyl-9H-carbazol-3-yl)-5-phenyl-1H-1,2,3-triazol-4-yl) (pyridin-3-yl) methanol], the “Caspase 3/7 activity, MDA-MB-468” value in assay [6] is given as “significantly increased”. Further, the “Caspase 3/7 activity compared to the vehicle, MDA-MB-435” value in assay [7] was “increased apoptosis”. Further, the “Caspase 3/7 activity compared to the vehicle, MDA-MB-231” value in assay [8] is recorded as “increased apoptosis”. Also, the concentration for 50% growth inhibition (GI50) in assay [9] is 80 nM; in [10], 8000 nM; in [11], 40 nM. For the same molecule, in assay [12], the “effect on cell viability, MDA-MB-468” value is “inhibited cell viability”. Further, in assay [3] (500 nM), the “effect on cell viability, MDA-MB-435” value is “inhibited cell viability”. Also, the cytotoxicity at 0.5 µM in [3] (Homo sapiens, MDA-MB-435, 500 nM, 72 hours, read-out: decrease in cell viability, MDA-MB-435) was roughly 80%. Also, in [13] (at 0.5 μM, read-out: Inh. of migration (converted)), the inhibition at 0.5 µM was 25.2%. For the same molecule, the inhibition at 1.6 µM in assay [13] (at 1.6 μM, read-out: Inh. of migration) came to 61.4 ± 9.08%.

For the molecule `CCn1c2ccccc2c2cc(Nc3ccnc(NCCCN4CCOCC4)n3)ccc21` [EHop-016, reference compound], the “inhibition of Vav2 binding to Rac1” value in assay [14] is roughly 80%.
